Reference: patent US4015974A, “Amido phosphorothiolates” (priority 1972, dated 1977)

Experiments:
Format in all cases: in vivo
[1] = system: barnyard grass (Echinochloa crus-galli); experiment: Pre-emergence application, herbicidal effect on barnyard grass (Table 1); design: key: 0: not damaged; 5: completely killed; conditions: 20 days after application, score 0-5
Description: (§1) Seeds of barnyard grass (Echinochloa crus-galli) and large crabgrass (Digitaria sanguinalis) as representatives of grassy weeds and those of radish, redroot pigweed (Amaranthus retroflexus), common purslane (Portulaca oleracea) and common lambsquarter (Chenopodium album) as representatives of broad-leaved weeds were individually sowed in flower pots of about 10 cm. in diameter. After covering the seeds with soil, test compounds as shown in Table 1 were individually applied to the soil treatment. Thereafter the plants were grown in a green house and 20 days after application the herbicidal effects of the compounds were observed, the results of which are as shown in Table 1.
(§2) Herbicidal effects were evaluated by the numerals ranging from 0 (not damaged) to 5 (completely killed). All the test compounds were used in the form of wettable powder and diluted with water before application.

[2] = system: large crabgrass (Digitaria sanguinalis); experiment: Pre-emergence application, herbicidal effect on large crabgrass (Table 1); design: key: 0: not damaged; 5: completely killed; conditions: 20 days after application, score 0-5
Description: as §1, §2

radish = experiment: Pre-emergence application, herbicidal effect on radish (Table 1); design: key: 0: not damaged; 5: completely killed; conditions: 20 days after application, score 0-5
Description: as §1, §2

[3] = system: redroot pigweed (Amaranthus retroflexus); experiment: Pre-emergence application, herbicidal effect on redroot pigweed (Table 1); design: key: 0: not damaged; 5: completely killed; conditions: 20 days after application, score 0-5
Description: as §1, §2

[4] = system: common purslane (Portulaca oleracea); experiment: Pre-emergence application, herbicidal effect on common purslane (Table 1); design: key: 0: not damaged; 5: completely killed; conditions: 20 days after application, score 0-5
Description: as §1, §2

[5] = system: common lambsquarter (Chenopodium album); experiment: Pre-emergence application, herbicidal effect on common lambsquarter (Table 1); design: key: 0: not damaged; 5: completely killed; conditions: 20 days after application, score 0-5
Description: as §1, §2

rice = experiment: Water application, phytotoxicity on rice (Table 2); design: key: 0: no effect; 1: very slightly affected; 2: slightly affected; 3: moderately affected; 4: considerably affected; 5: completely killed; conditions: 25 days, score 0-5
Description: (§3) Wagner pots of 14 cm. in diameter, which had been packed with 1.5 kg. of paddy field soil, were brought into the state of paddy fields. To the pots were transplanted rice seedlings at the 3-leave stage. Further, seeds of barnyard grass (Echinochloa crus-galli) were sowed in the pots and required amounts of test compounds were applied to the soil under water lodged condition. 25 days after application, the degrees of herbicidal activity and phytotoxity were investigated on above-mentioned plants which had been transplanted and sowed, and on broad-leaved weeds, e.g., monochoria (Monochoria viaginalis Presl.), false pimpernel (Linderna pyxidaria) and toothcup (Rotala indica Koehue), which had been spontaneously germinated. The test compounds were used in the form of wettable powder. The herbicidal effects and the phytotoxity were evaluated as follows by the numerals ranging from 0 to 5.

[6] = system: barnyard grass (Echinochloa crus-galli); experiment: Water application, herbicidal effect on barnyard grass (Table 2); design: key: 0: not damaged; 5: completely killed; conditions: 25 days, score 0-5
Description: as §3

[7] = system: broad-leaved weeds, e.g., monochoria, false pimpernel and toothcup; experiment: Water application, herbicidal effect on broad-leaved weeds (Table 2); design: key: 0: not damaged; 5: completely killed; conditions: 25 days, score 0-5
Description: as §3

| Compound | Herbicidal effect, barnyard grass ([1]; 10 g./a.) | Herbicidal effect, barnyard grass ([1]; 20 g./a.) | Herbicidal effect, barnyard grass ([1]; 40 g./a.) | Herbicidal effect, large crabgrass ([2]; 10 g./a.) | Herbicidal effect, large crabgrass ([2]; 20 g./a.) | Herbicidal effect, large crabgrass ([2]; 40 g./a.) | Herbicidal effect, radish (radish; 10 g./a.) | Herbicidal effect, radish (radish; 20 g./a.) | Herbicidal effect, radish (radish; 40 g./a.) | Herbicidal effect, redroot pigweed ([3]; 10 g./a.) | Herbicidal effect, redroot pigweed ([3]; 20 g./a.) | Herbicidal effect, redroot pigweed ([3]; 40 g./a.) | Herbicidal effect, common purslane ([4]; 10 g./a.) | Herbicidal effect, common purslane ([4]; 20 g./a.) | Herbicidal effect, common purslane ([4]; 40 g./a.) | Herbicidal effect, common lambsquarter ([5]; 10 g./a.) | Herbicidal effect, common lambsquarter ([5]; 20 g./a.) | Herbicidal effect, common lambsquarter ([5]; 40 g./a.) | Phytotoxicity on rice (rice; 10 g/a) | Phytotoxicity on rice (rice; 20 g/a) | also measured |
| --- | --- | --- | --- | --- | --- | --- | --- | --- | --- | --- | --- | --- | --- | --- | --- | --- | --- | --- | --- | --- | --- |
| CCOP(=O)(SCC(=O)N1CCC(C)CC1)SC(C)CC (stereo not drawn) [Compound 27] | 4 | 5 | 5 | 5 | 5 | 5 | 0 | 0 | 0 | 3 | 4 | 5 | 4 | 4 | 4 | 4 | 4 | 5 | 0 | 0 | Phytotoxicity on rice (rice; 40 g/a): 0; Herbicidal effects, barnyard grass ([6]; 10 g/a): 5; Herbicidal effects, barnyard grass ([6]; 20 g/a): 5; Herbicidal effects, barnyard grass ([6]; 40 g/a): 5; Herbicidal effects, broad-leaved weeds ([7]; 10 g/a): 5; Herbicidal effects, broad-leaved weeds ([7]; 20 g/a): 5; Herbicidal effects, broad-leaved weeds ([7]; 40 g/a): 5 |
| CCCCOP(=O)(SCC(=O)N1CCCCC1C)SCc1ccc(C)cc1 (stereo not drawn) [Compound 56] | 5 | 5 | 5 | 4 | 5 | 5 | 0 | 0 | 0 | 3 | 3 | 5 | 3 | 3 | 4 | 3 | 4 | 5 | 0 | 0 | Phytotoxicity on rice (rice; 40 g/a): 0; Herbicidal effects, barnyard grass ([6]; 10 g/a): 5; Herbicidal effects, barnyard grass ([6]; 20 g/a): 5; Herbicidal effects, barnyard grass ([6]; 40 g/a): 5; Herbicidal effects, broad-leaved weeds ([7]; 10 g/a): 5; Herbicidal effects, broad-leaved weeds ([7]; 20 g/a): 5; Herbicidal effects, broad-leaved weeds ([7]; 40 g/a): 5 |
| CCCCCCSP(=O)(OCC)SCC(=O)N1CCCCC1C (stereo not drawn) [Compound 62] | 4 | 5 | 5 | 4 | 5 | 5 | 0 | 0 | 0 | 3 | 4 | 5 | 3 | 4 | 5 | 4 | 4 | 5 | 0 | 0 | Phytotoxicity on rice (rice; 40 g/a): 0; Herbicidal effects, barnyard grass ([6]; 10 g/a): 5; Herbicidal effects, barnyard grass ([6]; 20 g/a): 5; Herbicidal effects, barnyard grass ([6]; 40 g/a): 5; Herbicidal effects, broad-leaved weeds ([7]; 10 g/a): 5; Herbicidal effects, broad-leaved weeds ([7]; 20 g/a): 5; Herbicidal effects, broad-leaved weeds ([7]; 40 g/a): 5 |
| CCOP(=O)(SCC(=O)N1CCCCC1C)SC(C)c1ccccc1 (stereo not drawn) [Compound 64] | 4 | 5 | 5 | 4 | 5 | 5 | 0 | 0 | 0 | 3 | 3 | 4 | 3 | 3 | 4 | 3 | 4 | 4 | 0 | 0 | Phytotoxicity on rice (rice; 40 g/a): 0; Herbicidal effects, barnyard grass ([6]; 10 g/a): 5; Herbicidal effects, barnyard grass ([6]; 20 g/a): 5; Herbicidal effects, barnyard grass ([6]; 40 g/a): 5; Herbicidal effects, broad-leaved weeds ([7]; 10 g/a): 5; Herbicidal effects, broad-leaved weeds ([7]; 20 g/a): 5; Herbicidal effects, broad-leaved weeds ([7]; 40 g/a): 5 |
| CCCOP(=O)(SC)SCC(=O)N1CCCCC1C (stereo not drawn) [Compound 66] | 5 | 5 | 5 | 5 | 5 | 5 | 0 | 0 | 1 | 5 | 5 | 5 | 5 | 5 | 5 | 5 | 5 | 5 | 0 | 0 | Phytotoxicity on rice (rice; 40 g/a): 0; Herbicidal effects, barnyard grass ([6]; 10 g/a): 5; Herbicidal effects, barnyard grass ([6]; 20 g/a): 5; Herbicidal effects, barnyard grass ([6]; 40 g/a): 5; Herbicidal effects, broad-leaved weeds ([7]; 10 g/a): 5; Herbicidal effects, broad-leaved weeds ([7]; 20 g/a): 5; Herbicidal effects, broad-leaved weeds ([7]; 40 g/a): 5 |
